How the values were obtained:
Assay in all cases: in vivo carotenoid production in E. coli, HPLC-DAD and LC-MS
Type in all cases: cell-based
[1] = biological target: T1, tCYP97H1 (Euglena gracilis, UniProt A0A1Y1C5R9); conditions: beta-carotene producing E. coli, S. oleracea ferredoxin / ferredoxin reductase co-expressed, product beta-cryptoxanthin
T1 construct: gene CYP97H1; plastid signal M1-L116 deleted; E. coli codon optimised; expressed in beta-carotene producing E. coli with Spinacia oleracea ferredoxin / ferredoxin reductase

[2] = biological target: T2, tCYP97H1 (Euglena gracilis, UniProt A0A1Y1C5R9, F218A); conditions: beta-carotene producing E. coli, S. oleracea ferredoxin / ferredoxin reductase co-expressed, product beta-cryptoxanthin
T2 construct: gene CYP97H1; plastid signal M1-L116 deleted; E. coli codon optimised; expressed in beta-carotene producing E. coli with Spinacia oleracea ferredoxin / ferredoxin reductase

[3] = biological target: T3, tCYP97A3At (Arabidopsis thaliana, UniProt Q93VK5); conditions: beta-carotene producing E. coli, S. oleracea ferredoxin / ferredoxin reductase co-expressed, product beta-cryptoxanthin
T3 construct: gene CYP97A3; first 77 residues deleted, no MBP tag; expressed in beta-carotene producing E. coli with Spinacia oleracea ferredoxin / ferredoxin reductase
T3 sequence (Q93VK5 78-595): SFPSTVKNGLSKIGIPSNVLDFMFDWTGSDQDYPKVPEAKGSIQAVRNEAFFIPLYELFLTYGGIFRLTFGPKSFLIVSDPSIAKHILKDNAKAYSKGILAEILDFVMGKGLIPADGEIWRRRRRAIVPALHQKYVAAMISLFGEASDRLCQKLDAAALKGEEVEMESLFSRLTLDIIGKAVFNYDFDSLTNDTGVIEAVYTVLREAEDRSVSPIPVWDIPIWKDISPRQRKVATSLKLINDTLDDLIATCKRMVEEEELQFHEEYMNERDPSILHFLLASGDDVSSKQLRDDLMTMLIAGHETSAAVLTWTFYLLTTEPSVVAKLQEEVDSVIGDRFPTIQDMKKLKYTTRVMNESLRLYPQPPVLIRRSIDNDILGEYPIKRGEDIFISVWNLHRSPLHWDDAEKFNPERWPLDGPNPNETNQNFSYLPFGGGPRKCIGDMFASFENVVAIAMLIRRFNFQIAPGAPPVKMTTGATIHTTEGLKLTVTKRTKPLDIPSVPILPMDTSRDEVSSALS

[4] = biological target: T4, tCYP97H1 (Euglena gracilis, UniProt A0A1Y1C5R9, F221A); conditions: beta-carotene producing E. coli, S. oleracea ferredoxin / ferredoxin reductase co-expressed; product beta-cryptoxanthin
T4 construct: gene CYP97H1; plastid signal M1-L116 deleted; E. coli codon optimised; expressed in beta-carotene producing E. coli with Spinacia oleracea ferredoxin / ferredoxin reductase

[5] = biological target: T5, tCYP97H1 (Euglena gracilis, UniProt A0A1Y1C5R9, F246A); conditions: beta-carotene producing E. coli, S. oleracea ferredoxin / ferredoxin reductase co-expressed; product beta-cryptoxanthin
T5 construct: gene CYP97H1; plastid signal M1-L116 deleted; E. coli codon optimised; expressed in beta-carotene producing E. coli with Spinacia oleracea ferredoxin / ferredoxin reductase

[6] = biological target: T6, tCYP97H1 (Euglena gracilis, UniProt A0A1Y1C5R9, F242A); conditions: beta-carotene producing E. coli, S. oleracea ferredoxin / ferredoxin reductase co-expressed; product beta-cryptoxanthin
T6 construct: gene CYP97H1; plastid signal M1-L116 deleted; E. coli codon optimised; expressed in beta-carotene producing E. coli with Spinacia oleracea ferredoxin / ferredoxin reductase

[7] = beta-cryptoxanthin formed in situ, side product zeaxanthin

T1 sequence (A0A1Y1C5R9 entry or part of it): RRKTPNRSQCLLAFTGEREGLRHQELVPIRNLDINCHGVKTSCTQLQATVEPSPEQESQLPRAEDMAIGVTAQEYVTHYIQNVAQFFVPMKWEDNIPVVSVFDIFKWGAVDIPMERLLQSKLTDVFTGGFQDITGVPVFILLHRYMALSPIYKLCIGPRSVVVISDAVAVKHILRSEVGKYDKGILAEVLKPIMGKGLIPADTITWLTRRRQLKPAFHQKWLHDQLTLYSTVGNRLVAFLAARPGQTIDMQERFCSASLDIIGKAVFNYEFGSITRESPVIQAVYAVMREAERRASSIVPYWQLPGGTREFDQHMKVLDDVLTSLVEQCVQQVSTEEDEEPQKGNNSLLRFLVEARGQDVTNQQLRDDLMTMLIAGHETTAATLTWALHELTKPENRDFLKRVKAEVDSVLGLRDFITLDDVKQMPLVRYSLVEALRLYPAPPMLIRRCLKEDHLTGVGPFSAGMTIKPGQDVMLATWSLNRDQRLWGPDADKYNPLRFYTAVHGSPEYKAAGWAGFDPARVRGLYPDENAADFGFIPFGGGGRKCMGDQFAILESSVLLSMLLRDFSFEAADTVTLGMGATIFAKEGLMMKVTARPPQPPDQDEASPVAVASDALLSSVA
T2 sequence (A0A1Y1C5R9 entry or part of it F218A): as the sequence (A0A1Y1C5R9 entry or part of it) above, with F102A counted along it
T5 sequence (A0A1Y1C5R9 entry or part of it F246A): as the sequence (A0A1Y1C5R9 entry or part of it) above, with F130A counted along it
T4 sequence (A0A1Y1C5R9 entry or part of it F221A): as the sequence (A0A1Y1C5R9 entry or part of it) above, with F105A counted along it
T6 sequence (A0A1Y1C5R9 entry or part of it F242A): as the sequence (A0A1Y1C5R9 entry or part of it) above, with F126A counted along it

SMILES	in vivo carotenoid production in E. coli, HPLC-DAD and LC-MS [1, 7]	in vivo carotenoid production in E. coli, HPLC-DAD and LC-MS [2, 7]	in vivo carotenoid production in E. coli, HPLC-DAD and LC-MS ([3]; beta-cryptoxanthin formed in situ, product zeaxanthin)	in vivo carotenoid production in E. coli, HPLC-DAD and LC-MS [1]	in vivo carotenoid production in E. coli, HPLC-DAD and LC-MS [2]	in vivo carotenoid production in E. coli, HPLC-DAD and LC-MS [4]	in vivo carotenoid production in E. coli, HPLC-DAD and LC-MS [3]	in vivo carotenoid production in E. coli, HPLC-DAD and LC-MS [5]	in vivo carotenoid production in E. coli, HPLC-DAD and LC-MS [6]
CC1=C(/C=C/C(C)=C/C=C/C(C)=C/C=C/C=C(C)/C=C/C=C(C)/C=C/C2=C(C)C[C@@H](O)CC2(C)C)C(C)(C)CCC1 [β-cryptoxanthin]	A small side production of zeaxanthin was detected with CYP97H1 and the F105A mutant	the zeaxanthin:β-cryptoxanthin ratio was displaced in favour of zeaxanthin	β-cryptoxanthin and zeaxanthin detection were confirmed by mass spectrometry in the strain ETL154, expressing CYP97A3	–	–	–	–	–	–
CC1=C(/C=C/C(C)=C/C=C/C(C)=C/C=C/C=C(C)/C=C/C=C(C)/C=C/C2=C(C)CCCC2(C)C)C(C)(C)CCC1 [β-carotene]	–	–	–	the deletion of the plastid peptide signal from residue M1 to L116 improved activity	All these single mutants exhibited reduced β-cryptoxanthin production	All these single mutants exhibited reduced β-cryptoxanthin production	production of a small amount of hydroxylated β-carotene in vivo	All these single mutants exhibited reduced β-cryptoxanthin production	All these single mutants exhibited reduced β-cryptoxanthin production

From publication PMC9953315, “Cytochrome P450 Surface Domains Prevent the β-Carotene Monohydroxylase CYP97H1 of Euglena gracilis from Acting as a Dihydroxylase” (Biomolecules, 2023)
